In patent publication US20100203507A1 (PROMETHEUS LABORATORIES, INC, priority 2005, published 2010):
Several values for one entry are separate records, joined by “and”; a condition that tells them apart may be missing. Equal values may be shown once.

How the values were obtained:
[1] = tested on: adult rheumatoid arthritis patients naive to MTX; assay: Prospective longitudinal MTX dose escalation study: response (DAS28, EULAR criteria, physician's assessment VAS) (Example 2)
[2] = tested on: patients with rheumatoid arthritis; assay: Cross-sectional study: clinical efficacy by disease activity score DAS28 (Example 1); format: in vivo, human
Procedure: (§1) Study design: The study was cross-sectional at two investigational California sites (Cedars Sinai, Department of Rheumatology; and UCLA, Department of Rheumatology). […] Concomitant disease-modifying arthritis agents (e.g., sulphasalazine, hydroxychloroquine, leflunomide), low-dose corticosteroids (<10 mg day), and folic acid supplementation were allowed. […] Patient demographics were collected at the time of enrollment in the study. At a single study visit, EDTA blood was drawn and shipped overnight to Prometheus Laboratories in San Diego, Calif.
(§2) Clinical status assessment: Patient clinical and demographic characteristics were collected at the single study visit. Clinical efficacy was assessed using the disease activity score (DAS28), which includes the number of tender and swollen joint counts (n=28), the erythrocyte sedimentation rate, and the patient's global assessment of disease activity.

[3] = tested on: RBC folate polyglutamates; assay: RBC folate polyglutamate levels by radio-assay (Example 2); format: in vivo, human; settings: for RBC folate PG decrease versus baseline / RBC folate PG levels: fourth visit
Procedure: Laboratory measurements: Red blood cell (RBC) long-chain MTXPG concentrations (MTXPG3; nmol/L RBC) were measured using a post-column photo-oxidation HPLC-fluorometry technique as described in, e.g., Dervieux et al., Clin. Chem., 49:1632-1641 (2003). RBC folate polyglutamates (Folate PGs; expressed as nmol/L RBCs) were measured using a radio-assay (Biorad; Hercules, Calif.). The MTHFR C677T polymorphism can be measured with a real-time TaqMan allelic discrimination assay as described above. The MS A2756G polymorphism, which results in an aspartic acid to glycine substitution at codon 919 of MS, can be measured with a real-time TaqMan allelic discrimination assay using the following primers and fluorogenic 3′-minor groove binding probes: forward primer: 5′-GAATACTTTGAGGAAATCATGGAAGA-3′ (SEQ ID NO:17); reverse primer: 5′-TCTGTTTCTACCACTTACCTTGAGAGACT-3′ (SEQ ID NO:18); wild-type fluorescent probe: 5′-FAM-AGA CAG GAC CAT TAT G-MGB-3′ (SEQ ID NO:19); and mutant fluorescent probe: 5′-VIC-ACA GGG CCA TTA TG-MGB-3′ (SEQ ID NO:20).

[4] = tested on: patients with rheumatoid arthritis; assay: Cross-sectional study: occurrence of side-effects under low dose MTX therapy (Example 1); format: in vivo, human
Procedure: as §1, §2
Statistical analysis: The analysis consisted of multivariate logistic regression with the occurrence of side-effects as the dependent variable.

[5] = tested on: adult rheumatoid arthritis patients naive to MTX; assay: Prospective longitudinal MTX dose escalation study: occurrence of side-effects (Example 2)
Procedure: The clinical assessment at each study visit consisted of a tender and swollen joint count, a patient's assessment of disease activity (10 cm-VAS), a physician's assessment of disease activity (10 cm-VAS), and a C-Reactive protein (CRP) determination.
The occurrence of side-effects was recorded at the time of each study visit. […] Leukocyte count, hemoglobin, and liver AST were measured on the day of the study visit using standard laboratory methods. […] All data were captured on Case Report Forms using a standardized questionnaire. This consisted of the presence of nausea, dyspepsia, diarrhea, headache, lethargy, stomatitis, alopecia, and pulmonary toxicity (e.g., cough, dyspnea, pulmonary infiltrates). Patients were evaluated by the same physician at the time of each study visit. Toxicities were graded as “mild,” “moderate,” and “severe.” EDTA whole blood was drawn from each patient and shipped overnight from Albany, N.Y. to Prometheus Laboratories in San Diego, Calif.
Toxicities were analyzed using the percentage of 4-6 week periods with side-effects per patient. […] Statistical analyses were performed using the software package SAS (Release 8.2; SAS Institute Inc.; Cary, N.C.).

[6] = visit 4, generalized linear model
[7] = visit 6, generalized linear model
[8] = 97 patients, single study visit
[9] = MS 2756A/A vs. MS2756 A/G or G/G
[10] = MTHFR 1298A/C or C/C vs. MTHFR 1298A/A
[11] = MTRR 66G/G vs. MTRR 66A/A or A/G

## CN(Cc1cnc2nc(N)nc(N)c2n1)c1ccc(C(=O)N[C@@H](CCC(=O)O)C(=O)O)cc1 [MTX, methotrexate]
[1]; MTHFR 677T/T genotype
  Estimate, lower decrease in physician's assessment in disease activity: 0.367
[1]; MTHFR 677T/T genotype, visit 4
  OR, lower likelihood of response to therapy: 9.9
[1]; RBC MTXPG3
  OR, therapeutic response at about 6 months when MTXPG3 greater than about 20 nmol/L RBCs at about 3 months: 8.0
[1]; TS *2/*2 genotype
  Estimate, lower decrease in physician's assessment in disease activity: 0.360
[1]; TS *2/*2 genotype, visit 4
  OR, lower likelihood of response to therapy: 3.9
[1]; dose escalation 7.5 to 15 mg/week with MTXPG increase of 40 nmol/L RBCs at visit 4, from model equation
  Decrease in physician's assessment of disease activity compared to baseline: 19.8%
[1]; visit 4
  Patients responding to therapy: 77%
  Patients responding to therapy, number: 36
  Patients with good response, number: 15
  Patients with moderate response, number: 11
  Patients with poor response (EULAR): 23%
[1]; visit 4 (baseline 5.1)
  DAS28, median: 3.5
[1]; visit 4 (baseline 5.6)
  Physician's assessment of disease activity 10 cm VAS, median: 2.6
[1]; [6]
  Estimate, RBC MTXPG level vs percentage change from baseline in physician's assessment VAS: −0.013±0.004
  Estimate, weekly MTX dose vs percentage change from baseline in physician's assessment VAS: 0.043±0.017
[1]; visit 4, generalized linear model, FIG. 3A
  Estimate, RBC MTXPG formation in responders vs non-responders: 0.034±0.020
[1]; visit 4, median dose 15 mg/week
  Patients with poor response (EULAR), number: 11
[1]; visit 4, n=47
  Median decrease (from baseline) in DAS28: 36%
[1]; visit 4, n=48
  Median decrease (from baseline) in physician's assessment of disease activity VAS: 47%
[1]; visit 6
  Estimate, MTX dose vs percentage change from baseline in DAS28: 0.011±0.051
  Estimate, formation of RBC MTXPGs vs percentage change from baseline in DAS28: −0.003±0.001
  Non-responders: 9%
  Responders with moderate response, number: 10
  Responders, number of patients: 31
[1]; visit 6 (baseline 5.1)
  DAS28, median: 3.1
[1]; visit 6 (baseline 5.6)
  Physician's assessment of disease activity 10 cm VAS, median: 2.1
[1]; [7]
  Estimate, RBC MTXPG levels vs percentage change from baseline in physician's assessment of disease activity: −0.0077±0.025
  Estimate, weekly MTX dose vs percentage change from baseline in physician's assessment of disease activity: 0.029±0.012
[1]; visit 6, median dose 17.5 mg weekly
  Non-responders, number of patients: three
[1]; visit 6, n=34
  Median decrease (from baseline) in DAS28: 41%
[1]; visit 6, n=35
  Median decrease (from baseline) in physician's assessment of disease activity VAS: 52%
[1]; visit 6, of the responders
  Responders with moderate response: 32%
[2]; 97 patients on MTX
  Patients presenting with a high disease activity: 47%
[2]; 97 patients, median 30 months under methotrexate
  Disease activity score (DAS28), median: 5.04
[3]; baseline to visit 4
  Estimate, percentage change in DAS28 vs percentage change in folate PG levels: 0.32±0.10
  Estimate, percentage change in physician's assessment VAS vs percentage change in folate PG levels: 0.71±0.22
[3]; baseline to visit 6
  Estimate, MTX dose vs decrease in RBC folate PGs: 0.0324±0.014
  Estimate, MTXPG levels vs decrease in RBC folate PGs: −0.009±0.003
[3]; dose 7.5 to 15 mg/week with MTXPG increase of 40 nmol/L RBCs at visit 6, from model equation
  Decrease in folate levels: 11.7%
[3]; fourth study visit, n=43 (initial 1222)
  Median RBC folate PG levels: 1065 nmol/L RBCs
[3]; efficacy index above 1
  RBC folate PG decrease versus baseline: 14%
  RBC folate PG levels: 1257 ± 70 nmol/L
[3]; efficacy index of 0
  RBC folate PG decrease versus baseline: 36%
  RBC folate PG levels: 886 ± 59 nmol/L
[3]; efficacy index of 1
  RBC folate PG decrease versus baseline: 42%
  RBC folate PG levels: 1168 ± 70 nmol/L
[3]; sixth visit
  Median RBC folate PG levels: 994 nmol/L RBCs
[3]; visit 4
  Likelihood of response to MTX, decrease in RBC folate PGs vs no change or increase: 8 fold and 7.7 fold
[4]; 97 patients
  Patients with high disease activity and side-effects, number: 18
[4]; 97 patients on MTX at least one month, single study visit
  Overall side-effects, number of patients: 40
[4]; [8]
  AST >40 U/L, % of patients: (6.1%)
  AST >40 U/L, number of patients: 6
  Alopecia, % of patients: (17.5%)
  Alopecia, number of patients: 17
  Central nervous system side-effects, % of patients: (11.3%)
  Central nervous system side-effects, number of patients: 11
  Diarrhea, % of patients: (6.2%)
  Diarrhea, number of patients: 6
  Dyspepsia, % of patients: (7.2%)
  Dyspepsia, number of patients: 7
  Elevation of AST twice the upper normal value, pulmonary toxicity, or hematopoietic toxicity: None of the patients
  Gastrointestinal tract side-effects, % of patients: (24.7%)
  Gastrointestinal tract side-effects, number of patients: 24
  Headache, % of patients: (5.1%)
  Headache, number of patients: 8
  Lethargy, % of patients: (8.2%)
  Lethargy, number of patients: 8
  Nausea, % of patients: (9.2%)
  Nausea, number of patients: 9
  Severity of side-effects: mild and did not require MTX withdrawal
  Stomatatis, % of patients: (3.1%)
  Stomatatis, number of patients: 3
[4]; of patients with high disease activity, at the time of the visit
  Patients with high disease activity also experiencing a side-effect: 39%
[4]; patients with MTHFR 677C/T or 677C/C genotype
  Occurrence of central nervous system side-effects: 9.0%
[4]; patients with MTHFR 677T/T genotype
  Occurrence of central nervous system side-effects: 62.5%
[4]; toxicogenetic index of 0
  Patients presenting with a side-effect: 17%
[5]; 2 severe lethargy, 2 severe dyspepsia
  Patients who experienced a severe side-effect in one of the study visits, number: 4
[5]; 48 patients
  Signs of hematological toxicity: None of the patients
[5]; 48 patients, 4 to 6 visits
  AST >40 U/L: median of percentage of study visits with side-effect per patient: 0%
  All side-effects: median of percentage of study visits with side-effect per patient: 50%
  Alopecia: median of percentage of study visits with side-effect per patient: 0%
  Alopecia: number of patients (% total) with at least one study visit with side-effect: 4 (8%)
  Central nervous system: median of percentage of study visits with side-effect per patient: 25%
  Central nervous system: number of patients (% total) with at least one study visit with side-effect: 30 (63%)
  Cough: median of percentage of study visits with side-effect per patient: 0%
  Cough: number of patients (% total) with at least one study visit with side-effect: 12 (25%)
  Dyspnea: median of percentage of study visits with side-effect per patient: 0%
  Dyspnea: number of patients (% total) with at least one study visit with side-effect: 1 (2.1%)
  Gastrointestinal tract: median of percentage of study visits with side-effect per patient: 25%
  Gastrointestinal tract: number of patients (% total) with at least one study visit with side-effect: 33 (69%)
  Headache: median of percentage of study visits with side-effect per patient: 0%
  Headache: number of patients (% total) with at least one study visit with side-effect: 14 (29%)
  Lethargy: median of percentage of study visits with side-effect per patient: 17%
  Lethargy: number of patients (% total) with at least one study visit with side-effect: 27 (56%)
  diarrhea: median of percentage of study visits with side-effect per patient: 0%
  diarrhea: number of patients (% total) with at least one study visit with side-effect: 15 (31%)
  dyspepsia: median of percentage of study visits with side-effect per patient: 0%
  dyspepsia: number of patients (% total) with at least one study visit with side-effect: 16 (33%)
  nausea: median of percentage of study visits with side-effect per patient: 0%
  nausea: number of patients (% total) with at least one study visit with side-effect: 22 (46%)
  stomatitis: median of percentage of study visits with side-effect per patient: 0%
  stomatitis: number of patients (% total) with at least one study visit with side-effect: 5 (10%)
[5]; [9]
  Estimate, percentage of 4 week periods with all side-effects: 0.20 ± 0.09
  Estimate, percentage of 4 week periods with central nervous system side-effects: 0.11 ± 0.09
  Estimate, percentage of 4 week periods with gastrointestinal side-effects: 0.29 ± 0.08
[5]; [10]
  Estimate, percentage of 4 week periods with all side-effects: 0.18 ± 0.10
  Estimate, percentage of 4 week periods with central nervous system side-effects: 0.21 ± 0.10
  Estimate, percentage of 4 week periods with gastrointestinal side-effects: 0.25 ± 0.09
[5]; [11]
  Estimate, percentage of 4 week periods with all side-effects: 0.22 ± 0.10
  Estimate, percentage of 4 week periods with central nervous system side-effects: 0.16 ± 0.09
  Estimate, percentage of 4 week periods with gastrointestinal side-effects: 0.28 ± 0.09
[5]; baseline to visit 4
  Increase in MCV above 120 fl: none of the patients
[5]; both at the fourth visit
  Patients requiring MTX dosage interruption, number: Two
[5]; generalized linear model
  Estimate, MTX dose administered vs occurrence of central nervous system side-effects: 0.186
[5]; visit 4
  Median increase in MCV from baseline: 3.5%
[5]; visit 4 (baseline 89 fl)
  Erythrocyte mean corpuscular volume (MCV), median: 93 fL
[5]; visit 6
  MCV of the only one patient above 120 fl: 124 fL
  Median increase in MCV: 3.7%
